Assay results published in PubChem BioAssay (NCI).
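Exposure lasted 48 hours, with cells grown in 96-well plates and compounds tested at five concentrations. The concentration for full growth arrest is given as TGI.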

Assays:
Assay in all cases: NCI-60 cell line screen, 48 h
OVCAR-8 ovarian = system: OVCAR-8 ovarian
SK-MEL-2 melanoma = system: SK-MEL-2 melanoma
SNB-75 CNS = system: SNB-75 CNS
K-562 leukemia = system: K-562 leukemia
UACC-62 melanoma = system: UACC-62 melanoma
SN12C renal = system: SN12C renal
OVCAR-3 ovarian = system: OVCAR-3 ovarian
UO-31 renal = system: UO-31 renal
MALME-3M melanoma = system: MALME-3M melanoma
HL-60(TB) leukemia = system: HL-60(TB) leukemia
ACHN renal = system: ACHN renal
MDA-MB-231 breast = system: MDA-MB-231 breast
HCT-15 colon = system: HCT-15 colon
NCI-H23 lung = system: NCI-H23 lung
NCI/ADR-RES ovarian = system: NCI/ADR-RES ovarian
HS 578T breast = system: HS 578T breast
M14 melanoma = system: M14 melanoma
NCI-H226 lung = system: NCI-H226 lung
RXF 393 renal = system: RXF 393 renal
A498 renal = system: A498 renal

Structure (SMILES) | TGI (OVCAR-8 ovarian) | TGI (SK-MEL-2 melanoma) | TGI (SNB-75 CNS) | TGI (K-562 leukemia) | TGI (UACC-62 melanoma) | TGI (SN12C renal) | TGI (OVCAR-3 ovarian) | TGI (UO-31 renal) | TGI (MALME-3M melanoma) | TGI (HL-60(TB) leukemia) | TGI (ACHN renal) | TGI (MDA-MB-231 breast) | TGI (HCT-15 colon) | TGI (NCI-H23 lung) | TGI (NCI/ADR-RES ovarian) | TGI (HS 578T breast) | TGI (M14 melanoma) | TGI (NCI-H226 lung) | TGI (RXF 393 renal) | TGI (A498 renal)
COc1cc(/C=C/C(=O)OCCc2ccccc2)ccc1O | 79.3 µM | 42.7 µM | 30.2 µM | 85.4 µM | 26 µM | 36.7 µM | 36.9 µM | 27.3 µM | 31.7 µM | 40.2 µM | 33.9 µM | 30.6 µM | 44.6 µM | 36.5 µM | 60.6 µM | 50 µM | 29 µM | – | – | –
O=C(NNc1ccnc2cc(Cl)ccc12)/C(=C\c1ccccc1Cl)NC(=O)c1ccccc1 | 43.5 µM | 46.1 µM | > 100 µM | > 100 µM | 70.9 µM | > 100 µM | 38.2 µM | > 100 µM | > 100 µM | 67.8 µM | > 100 µM | > 100 µM | > 100 µM | > 100 µM | 73.7 µM | > 100 µM | > 100 µM | 67.6 µM | > 100 µM | –
COC(=O)C1C(OC(=O)C(Cl)(c2ccccc2)c2ccccc2)CC2CCC1N2C (configuration not stated) | > 100 µM | – | > 100 µM | > 100 µM | > 100 µM | > 100 µM | > 100 µM | > 100 µM | > 100 µM | > 100 µM | > 100 µM | > 100 µM | > 100 µM | > 100 µM | > 100 µM | – | > 100 µM | > 100 µM | > 100 µM | –
CCCCOC(=O)NC(Nc1ccc(S(=O)(=O)Nc2ccc(OC)nn2)cc1)(C(F)(F)F)C(F)(F)F | > 100 µM | – | – | > 100 µM | > 100 µM | > 100 µM | > 100 µM | > 100 µM | > 100 µM | > 100 µM | > 100 µM | > 100 µM | > 100 µM | > 100 µM | > 100 µM | – | > 100 µM | > 100 µM | > 100 µM | > 100 µM
CCC(=O)N1NC(=O)C(CC)(CC)C1=O | > 100 µM | > 100 µM | > 100 µM | > 100 µM | > 100 µM | > 100 µM | > 100 µM | > 100 µM | – | > 100 µM | > 100 µM | > 100 µM | > 100 µM | > 100 µM | > 100 µM | > 100 µM | > 100 µM | > 100 µM | > 100 µM | –
CCOC(=O)C(NCc1ccc2c(c1)OCO2)(NC(=O)c1ccccc1)C(F)(F)F (configuration not stated) | > 100 µM | > 100 µM | > 100 µM | > 100 µM | > 100 µM | > 100 µM | > 100 µM | > 100 µM | > 100 µM | 82 µM | > 100 µM | > 100 µM | > 100 µM | > 100 µM | > 100 µM | > 100 µM | > 100 µM | > 100 µM | > 100 µM | –
COc1ccc2c(c1)c1c(n2CCN(C)C)-c2cccc(OC)c2CC1 | 42.4 µM | 30.2 µM | 18.9 µM | 16.4 µM | 34.6 µM | 35.5 µM | 30.9 µM | 35.4 µM | – | – | 38.8 µM | 35.2 µM | 45.9 µM | 36.9 µM | 47.3 µM | 33.5 µM | 24.9 µM | 17.1 µM | – | 44.9 µM
O=C(O)c1ccc(-c2nc3ccc(Cl)cc3[nH]2)cc1 | > 100 µM | > 100 µM | > 100 µM | > 100 µM | – | > 100 µM | > 100 µM | > 100 µM | – | > 100 µM | – | > 100 µM | > 100 µM | – | > 100 µM | > 100 µM | > 100 µM | > 100 µM | > 100 µM | –
CCn1c(-c2ccc(F)cc2)nc2c1C(=O)c1ccccc1C2=O | > 100 µM | – | > 100 µM | > 100 µM | > 100 µM | > 100 µM | > 100 µM | – | > 100 µM | > 100 µM | > 100 µM | > 100 µM | > 100 µM | > 100 µM | > 100 µM | > 100 µM | > 100 µM | > 100 µM | > 100 µM | –
Cc1cccc(/C=C2\CCCc3ccccc3C2=O)c1 | 78.3 µM | 30.8 µM | > 100 µM | 48.8 µM | 27.5 µM | 38 µM | 78.7 µM | > 100 µM | 35.3 µM | 29 µM | 86.6 µM | 48 µM | 44.9 µM | 79.8 µM | 69.2 µM | 32.6 µM | 34.6 µM | 40.8 µM | – | –
CCCCCC[C@H]1CC(=O)C2CCCC[C@@]23CC[C@H](CCl)N13 (some centres not stated) (tested in a mixture with another compound) | 64.6 µM | > 100 µM | 81.6 µM | > 100 µM | > 100 µM | > 100 µM | > 100 µM | > 100 µM | > 100 µM | 46.5 µM | > 100 µM | > 100 µM | > 100 µM | > 100 µM | – | 60.4 µM | > 100 µM | – | – | > 100 µM
COc1cc(C=C2N=C(c3ccccc3)N(n3c(-c4ccccc4)nc4ccccc4c3=O)C2=O)cc(OC)c1OC | 51.4 µM | 43.4 µM | 62.6 µM | > 100 µM | 51 µM | 36.2 µM | 54 µM | > 100 µM | 38.6 µM | > 100 µM | 82.2 µM | 53.1 µM | > 100 µM | 56.6 µM | > 100 µM | 51.6 µM | 75.7 µM | 49.4 µM | 39.2 µM | –
O=c1oc2ccccc2c(O)c1C1c2c(c3ccccc3oc2=O)Oc2c1c(=O)oc1ccccc21 | > 100 µM | > 100 µM | > 100 µM | > 100 µM | 47.5 µM | 73.3 µM | > 100 µM | 35.6 µM | > 100 µM | – | 62.9 µM | 71.2 µM | > 100 µM | 89.2 µM | > 100 µM | > 100 µM | – | 64 µM | – | > 100 µM
